Assay results reported in patent US20250074919A1, “Heteroaryl compounds as inhibitors of irak4, compositions and applications thereof” (Accro Bioscience (HK) Limited, priority 2021, published 2025).
Where a name gives a salt, the structure may show the parent alone.

Biological target: IRAK4 (Homo sapiens (Human), UniProt Q9NWZ3)
Experiment: Screening the compounds against IRAK4 with ATP (Caliper, FAM-labeled peptide)
Assay type: biochemical
Settings: IRAK4 kinase inhibition relative to CA4948
Description: Prepare Ix kinase base buffer and stop buffer for testing kinases: (1) base buffer: 50 mM HEPES (pH 7.5), 0.0015% Brij-35; (2) stop buffer: 100 mM HEPES (pH 7.5), 0.015% Brij-35, 0.2% Coating Reagent #3, 50 mM EDTA. Then prepare compounds for testing: Dilute the compound to 50× of the final desired highest inhibitor concentration in reaction by 100% DMSO. Transfer 100 μL of this compound dilution to a well in a 96-well plate (source plate).
Serially dilute the compounds by 3-fold for a total of 10 points. Transfer 10 μL of the compound from the source plate to a new 96-well plate (intermediate plate) and add 90 μL of Ix kinase buffer. Shake the mixture on the intermediate plate for 10 min. Transfer 5 μL of each well from the 96-well intermediate plate to a 384-well plate in duplicates. Add 10 μL of 2.5× enzyme solution to each well of the 384-well assay plate and incubate at room temperature for 10 min. Add 10 μL, of 2.5×FAM-labeled peptide and ATP solution and incubate at 28° C. for a period of time. Finally stop the reaction by adding 30 μL of stop buffer and collect data on Caliper to obtain the IC50.

IRAK4, sequence (Q9NWZ3 whole entry): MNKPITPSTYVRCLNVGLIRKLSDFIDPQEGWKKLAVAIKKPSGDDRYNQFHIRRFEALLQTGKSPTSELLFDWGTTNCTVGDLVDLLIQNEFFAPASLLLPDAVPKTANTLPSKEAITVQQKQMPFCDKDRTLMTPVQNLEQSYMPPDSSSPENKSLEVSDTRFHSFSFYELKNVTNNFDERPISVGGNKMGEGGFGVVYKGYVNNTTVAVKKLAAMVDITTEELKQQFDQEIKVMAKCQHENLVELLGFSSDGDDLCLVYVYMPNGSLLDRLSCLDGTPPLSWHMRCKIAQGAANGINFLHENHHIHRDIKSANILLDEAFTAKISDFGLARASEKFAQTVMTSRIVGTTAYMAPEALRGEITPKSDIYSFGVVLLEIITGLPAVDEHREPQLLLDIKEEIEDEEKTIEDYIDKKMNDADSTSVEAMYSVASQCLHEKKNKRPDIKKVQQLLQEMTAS

SMILES	activity, times better than that of the positive control compound CA4948
Cl.Cn1cc(-c2cccc(NC(=O)c3cc4oc(N5CCOCC5)nc4nc3N3CCN(CCO)CC3)n2)cn1 [Compound A36, 5-(4-(2-Hydroxyethyl)piperazin-1-yl)-N-(6-(1-methyl-1H-pyrazol-4-yl)pyridin-2-yl)-2-morpholinooxazolo[4,5-b]pyridine-6-carboxamide Hydrochloride]	more than 5 times
COc1nc2nc(N3CCOCC3)oc2cc1C(=O)Nc1cccc(-c2cnn(C)c2)n1 [Compound A54, 5-Methoxy-N-(6-(1-methyl-1H-pyrazol-4-yl)pyridin-2-yl)-2-morpholinooxazolo[4,5-b]pyridine-6-carboxamide]	more than 5 times
Cn1cc(-c2cccc(NC(=O)c3cc4c(nc3OC3CC(C)(O)C3)OC(C)(C)C4)n2)cn1 (stereo not drawn) [Compound B35, 6-(3-Hydroxy-3-methylcyclobutoxy)-2,2-dimethyl-N-(6-(1-methyl-1H-pyrazol-4-yl)pyridin-2-yl)-2,3-dihydrofuro[2,3-b]pyridine-5-carboxamide]	more than 10 times

Same assay, conditions: read-out: IC50 (nM) (10 μM ATP); IRAK4 kinase, 10 μM ATP

SMILES	IC50 [nM]
CC(C)Oc1nc2c(cc1C(=O)Nc1cccc(-c3cnn(C)c3)n1)CC(C)(C)O2 [Compound B13, 6-Isopropoxy-2,2-dimethyl-N-(6-(1-methyl-1H-pyrazol-4-yl)pyridin-2-yl)-2,3-dihydrofuro[2,3-b]pyridine-5-carboxamide]	6.2
Cl.Cn1cc(-c2cccc(NC(=O)c3cc4oc(N5CCOCC5)nc4nc3N3CCN(CCO)CC3)n2)cn1 [Compound A36, 5-(4-(2-Hydroxyethyl)piperazin-1-yl)-N-(6-(1-methyl-1H-pyrazol-4-yl)pyridin-2-yl)-2-morpholinooxazolo[4,5-b]pyridine-6-carboxamide Hydrochloride]	17
Cn1cc(-c2cccc(NC(=O)c3cc4c(nc3N3CCNC5(CC5)C3)OC(C)(C)C4)n2)cn1 [Compound B8, 2,2-Dimethyl-N-(6-(1-methyl-1H-pyrazol-4-yl)pyridin-2-yl)-6-(4,7-diazaspiro[2.5]octan-7-yl)-2,3-dihydrofuro[2,3-b]pyridine-5-carboxamide]	224
Cn1cc(-c2cccc(NC(=O)c3cc4oc(N5CCOCC5)nc4nc3N3CC[C@H](O)C3)n2)cn1 [Compound A6, (S)-5-(3-hydroxypyrrolidin-1-yl)-N-(6-(1-methyl-1H-pyrazol-4-yl)pyridin-2-yl)-2-morpholinooxazolo[4,5-b]pyridine-6-carboxamide]	194
Cn1cc(-c2cccc(NC(=O)c3cc4oc(N5CCOCC5)nc4nc3N3CC(C)(O)C3)n2)cn1 [Compound A14, 5-(3-Hydroxy-3-methylazetidin-1-yl)-N-(6-(1-methyl-1H-pyrazol-4-yl)pyridin-2-yl)-2-morpholinooxazolo[4,5-b]pyridine-6-carboxamide]	164
CN1CCN(c2nc3nc(N4CCOCC4)oc3cc2C(=O)Nc2cccc(-c3cnn(C)c3)n2)CC1CO (stereo not drawn) [Compound A37, 5-(3-(Hydroxymethyl)-4-methylpiperazin-1-yl)-N-(6-(1-methyl-1H-pyrazol-4-yl)pyridin-2-yl)-2-morpholinooxazolo[4,5-b]pyridine-6-carboxamide Hydrochloride]	462
CC1(C)Cc2cc(C(=O)Nc3cccn([C@H]4C[C@H]4F)c3=O)c(N3CCC(O)CC3)nc2O1 [Compound B9, N-(1-((1S,2R)-2-Fluorocyclopropyl)-2-oxo-1,2-dihydropyridin-3-yl)-6-(4-hydroxypiperidin-1-yl)-2,2-dimethyl-2,3-dihydrofuro[2,3-b]pyridine-5-carboxamide]	69
CN(C)C1CCN(c2nc3nc(N4CCOCC4)oc3cc2C(=O)Nc2cccc(-c3cnn(C)c3)n2)CC1 [Compound A23, 5-(4-(Dimethylamino)piperidin-1-yl)-N-(6-(1-methyl-1H-pyrazol-4-yl)pyridin-2-yl)-2-morpholinooxazolo[4,5-b]pyridine-6-carboxamide]	425
CC(Oc1nc2c(cc1C(=O)Nc1cccc(-c3cnn(C)c3)n1)CC(C)(C)O2)C1CC1 (stereo not drawn) [Compound B26, 6-(1-Cyclopropylethoxy)-2,2-dimethyl-N-(6-(1-methyl-1H-pyrazol-4-yl)pyridin-2-yl)-2,3-dihydrofuro[2,3-b]pyridine-5-carboxamide]	13
COC1CCN(c2nc3nc(N4CCN(C)CC4)oc3cc2C(=O)Nc2cccc(-c3cnn(C)c3)n2)CC1 [Compound A52, 5-(4-Methoxypiperidin-1-yl)-N-(6-(1-methyl-1H-pyrazol-4-yl)pyridin-2-yl)-2-(4-methylpiperazin-1-yl)oxazolo[4,5-b]pyridine-6-carboxamide]	5.1
COc1ncccc1NC(=O)c1cc2oc(N3CCOCC3)nc2nc1N1CCC(O)CC1 [Compound A45, 5-(4-Hydroxypiperidin-1-yl)-N-(2-methoxypyridin-3-yl)-2-morpholinooxazolo[4,5-b]pyridine-6-carboxamide]	131
COc1nc2nc(N3CCOCC3)oc2cc1C(=O)Nc1cccc(-c2cnn(C)c2)n1 [Compound A54, 5-Methoxy-N-(6-(1-methyl-1H-pyrazol-4-yl)pyridin-2-yl)-2-morpholinooxazolo[4,5-b]pyridine-6-carboxamide]	21
CN1CCC(Oc2nc3c(cc2C(=O)Nc2cccc(-c4cnn(C)c4)n2)CC(C)(C)O3)C1 (stereo not drawn) [Compound B21, 2,2-Dimethyl-N-(6-(1-methyl-1H-pyrazol-4-yl)pyridin-2-yl)-6-((1-methylpyrrolidin-3-yl)oxy)-2,3-dihydrofuro[2,3-b]pyridine-5-carboxamide]	75
Cn1cc(-c2cccc(NC(=O)c3cc4oc(N5CCOCC5)nc4nc3N3CCNCC3)n2)cn1 [Compound A13, N-(6-(1-Methyl-1H-pyrazol-4-yl)pyridin-2-yl)-2-morpholino-5-(piperazin-1-yl)oxazolo[4,5-b]pyridine-6-carboxamide]	304
Cn1cc(-c2cccc(NC(=O)c3cc4c(nc3OC3CNC3)OC(C)(C)C4)n2)cn1 [Compound B30, 6-(Azetidin-3-yloxy)-2,2-dimethyl-N-(6-(1-methyl-1H-pyrazol-4-yl)pyridin-2-yl)-2,3-dihydrofuro[2,3-b]pyridine-5-carboxamide]	170
Cn1cc(-c2cccc(NC(=O)c3cc4c(nc3N3CCC5(CCO5)CC3)OC(C)(C)C4)n2)cn1 [Compound B6, 2,2-Dimethyl-N-(6-(1-methyl-1H-pyrazol-4-yl)pyridin-2-yl)-6-(1-oxa-7-azaspiro[3.5]nonan-7-yl)-2,3-dihydrofuro[2,3-b]pyridine-5-carboxamide]	5.9
Cn1cc(-c2cccc(NC(=O)c3cc4c(nc3OC3CC(C)(O)C3)OC(C)(C)C4)n2)cn1 (stereo not drawn) [Compound B35, 6-(3-Hydroxy-3-methylcyclobutoxy)-2,2-dimethyl-N-(6-(1-methyl-1H-pyrazol-4-yl)pyridin-2-yl)-2,3-dihydrofuro[2,3-b]pyridine-5-carboxamide]	6.8
Cn1cc(-c2cccc(NC(=O)c3cc4oc(N5CCOCC5)nc4nc3N3CCCC(O)C3)n2)cn1 (stereo not drawn) [Compound A16, 5-(3-Hydroxypiperidin-1-yl)-N-(6-(1-methyl-1H-pyrazol-4-yl)pyridin-2-yl)-2-morpholinooxazolo[4,5-b]pyridine-6-carboxamide]	31
Cn1cc(-c2cccc(NC(=O)c3cc4oc(N5CCOCC5)nc4nc3N3CCN4CCC[C@H]4C3)n2)cn1 [Compound A27, (S)-5-(Hexahydropyrrolo[1,2-a]pyrazin-2(1H)-yl)-N-(6-(1-methyl-1H-pyrazol-4-yl)pyridin-2-yl)-2-morpholinooxazolo[4,5-b]pyridine-6-carboxamide]	81
Cn1cc(-c2cccc(NC(=O)c3cc4c(nc3OC(F)F)OC(C)(C)C4)n2)cn1 [Compound B20, 6-(Difluoromethoxy)-2,2-dimethyl-N-(6-(1-methyl-1H-pyrazol-4-yl)pyridin-2-yl)-2,3-dihydrofuro[2,3-b]pyridine-5-carboxamide]	27
Cn1cc(-c2cccc(NC(=O)c3cc4c(nc3OC3CCC3)OC(C)(C)C4)n2)cn1 [Compound B14, 6-Cyclobutoxy-2,2-dimethyl-N-(6-(1-methyl-1H-pyrazol-4-yl)pyridin-2-yl)-2,3-dihydrofuro[2,3-b]pyridine-5-carboxamide]	6.1
CN1CC(Oc2nc3c(cc2C(=O)Nc2cccc(-c4cnn(C)c4)n2)CC(C)(C)O3)C1 [Compound B31, 2,2-Dimethyl-N-(6-(1-methyl-1H-pyrazol-4-yl)pyridin-2-yl)-6-((1-methylazetidin-3-yl)oxy)-2,3-dihydrofuro[2,3-b]pyridine-5-carboxamide]	176
CN1CCN(c2nc3nc(N4CCC(C)(O)CC4)c(C(=O)Nc4cccc(-c5cnn(C)c5)n4)cc3o2)CC1 [Compound A59, 5-(4-Hydroxy-4-methylpiperidin-1-yl)-N-(6-(1-methyl-1H-pyrazol-4-yl)pyridin-2-yl)-2-(4-methylpiperazin-1-yl)oxazolo[4,5-b]pyridine-6-carboxamide]	6.6
Cn1cc(-c2cccc(NC(=O)c3cc4c(nc3N3CCN(C5CC5)CC3)OC(C)(C)C4)n2)cn1 [Compound B4, 6-(4-Cyclopropylpiperazin-1-yl)-2,2-dimethyl-N-(6-(1-methyl-1H-pyrazol-4-yl)pyridin-2-yl)-2,3-dihydrofuro[2,3-b]pyridine-5-carboxamide]	7.5
Cn1cc(-c2cccc(NC(=O)c3cc4c(nc3O[C@H]3CCOC3)OC(C)(C)C4)n2)cn1 [Compound B17, (S)-2,2-Dimethyl-N-(6-(1-methyl-1H-pyrazol-4-yl)pyridin-2-yl)-6-((tetrahydrofuran-3-yl)oxy)-2,3-dihydrofuro[2,3-b]pyridine-5-carboxamide]	6.5
Cn1cc(-c2cccc(NC(=O)c3cc4c(nc3OC3CCCC3)OC(C)(C)C4)n2)cn1 [Compound B15, 6-(Cyclopentyloxy)-2,2-dimethyl-N-(6-(1-methyl-1H-pyrazol-4-yl)pyridin-2-yl)-2,3-dihydrofuro[2,3-b]pyridine-5-carboxamide]	5.6
COCCN1CCN(c2nc3nc(N4CCOCC4)oc3cc2C(=O)Nc2cccc(-c3cnn(C)c3)n2)CC1 [Compound A34, 5-(4-(2-Methoxyethyl)piperazin-1-yl)-N-(6-(1-methyl-1H-pyrazol-4-yl)pyridin-2-yl)-2-morpholinooxazolo[4,5-b]pyridine-6-carboxamide Hydrochloride]	40
